Data reported in paper PMC12504763, “Antiproliferation, 3D-multicellular spheroid and VEGFR-2 inhibitory properties of spiroindolin-2-ones with phosphonate function” (Scientific Reports, 2025).
Read-outs that look alike come from different tables or passages of the source.

What was measured:
TNF-α [1] = assay: TNF-α inhibitory properties (ELISA), PaCa2 cell lysate; format: cell-based, human; conditions: at 10 μM; for TNF-α pg/mL (± SEM) PaCa2: control 111.8 ± 2.0
VEGFR-2 [2] = molecular target: T1, VEGFR-2 (Homo sapiens, UniProt P35968); assay: cell-based; format: cell-based; conditions: for inhibition at 10 µM: MCF7; for VEGFR-2 pg/mL ± SEM MCF7: at 10 μM, control 258.70 ± 2.3
T1 construct: endogenous in cells; host or cells: HCT116, PaCa2, MCF7 (human cancer cell lines, ATCC origin)
T1 sequence (P35968 20-1356): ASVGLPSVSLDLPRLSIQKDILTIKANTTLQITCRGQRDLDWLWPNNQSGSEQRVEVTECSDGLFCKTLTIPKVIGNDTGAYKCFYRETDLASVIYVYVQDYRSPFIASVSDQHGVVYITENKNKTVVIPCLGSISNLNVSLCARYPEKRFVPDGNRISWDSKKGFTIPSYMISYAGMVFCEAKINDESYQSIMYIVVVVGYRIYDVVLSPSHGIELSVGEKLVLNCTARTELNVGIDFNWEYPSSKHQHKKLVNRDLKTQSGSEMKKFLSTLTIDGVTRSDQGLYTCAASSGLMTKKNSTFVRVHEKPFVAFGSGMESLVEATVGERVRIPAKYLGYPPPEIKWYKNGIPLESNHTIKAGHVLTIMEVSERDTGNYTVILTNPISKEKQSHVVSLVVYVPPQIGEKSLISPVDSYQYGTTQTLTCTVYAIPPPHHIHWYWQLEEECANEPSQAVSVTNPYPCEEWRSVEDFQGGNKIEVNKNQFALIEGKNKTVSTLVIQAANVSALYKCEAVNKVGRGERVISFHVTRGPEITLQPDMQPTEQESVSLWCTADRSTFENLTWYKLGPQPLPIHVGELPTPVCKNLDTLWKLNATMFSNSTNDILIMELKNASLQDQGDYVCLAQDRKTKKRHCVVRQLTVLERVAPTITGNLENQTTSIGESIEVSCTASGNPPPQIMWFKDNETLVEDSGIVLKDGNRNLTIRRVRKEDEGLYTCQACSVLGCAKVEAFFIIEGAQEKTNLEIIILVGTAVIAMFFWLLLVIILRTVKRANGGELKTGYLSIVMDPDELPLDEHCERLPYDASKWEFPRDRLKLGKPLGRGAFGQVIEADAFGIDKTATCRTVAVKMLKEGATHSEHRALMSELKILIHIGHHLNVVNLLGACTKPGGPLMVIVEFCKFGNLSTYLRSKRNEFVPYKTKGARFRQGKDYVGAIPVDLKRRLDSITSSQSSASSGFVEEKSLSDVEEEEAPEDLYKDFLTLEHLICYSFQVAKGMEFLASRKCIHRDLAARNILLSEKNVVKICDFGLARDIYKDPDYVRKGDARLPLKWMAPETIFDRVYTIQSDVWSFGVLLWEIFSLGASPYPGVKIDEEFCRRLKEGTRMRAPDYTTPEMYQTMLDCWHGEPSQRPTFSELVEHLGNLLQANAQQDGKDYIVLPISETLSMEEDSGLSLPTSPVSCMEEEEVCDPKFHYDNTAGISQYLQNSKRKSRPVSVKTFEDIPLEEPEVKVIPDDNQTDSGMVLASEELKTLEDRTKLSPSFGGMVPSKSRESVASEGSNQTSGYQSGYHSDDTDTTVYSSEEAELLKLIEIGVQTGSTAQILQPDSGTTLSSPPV

TNF-α [3] = assay: TNF-α inhibitory properties (ELISA), HCT116 cell lysate; format: cell-based, human; conditions: at 10 μM; for TNF-α pg/mL (± SEM) HCT116: control 95.74 ± 0.5
[4] = system: MCF7 (breast) cancer cell line; assay: 2D-monolayer antiproliferation (MTT) against MCF7; format: cell-based, human; conditions: for IC50: Homo sapiens, MTT, 72 h incubation, MCF7 breast, read-out: IC50, μM ± SEM MCF7; for SI (selectivity index) MCF7: IC50 of RPE1 normal cell/IC50 of MCF7
[5] = system: PaCa2 (pancreatic) cancer cell line; assay: 2D-monolayer antiproliferation (MTT) against PaCa2; format: cell-based, human; conditions: for 1/(observed property): 1/observed IC50 (μM), PaCa2; for IC50: Homo sapiens, PaCa-2, MTT, 72 h incubation, PaCa2 pancreatic, read-out: IC50, μM ± SEM PaCa2; for SI (selectivity index) PaCa2: IC50 of RPE1 normal cell/IC50 of PaCa2
TNF-α [6] = assay: TNF-α inhibitory properties (ELISA), MCF7 cell lysate; format: cell-based, human; conditions: at 10 μM; for TNF-α pg/mL (± SEM) MCF7: control 83.26 ± 1.1
[7] = system: A549 (lung) cancer cell line; assay: 2D-monolayer antiproliferation (MTT) against A549; format: cell-based, human; conditions: for IC50: Homo sapiens, MTT, 72 h incubation, A549 lung, read-out: IC50, μM ± SEM A549; for SI (selectivity index) A549: IC50 of RPE1 normal cell/IC50 of A549
COX-1 = molecular target: T2, COX-1 (Ovis aries, UniProt P05979); assay: biochemical; conditions: 3 replicates, read-out: % Inhibition of COX-1 ± SEM
T2 construct: purchased BioVision incorporated USA K548–100
T2 sequence (P05979 25-600): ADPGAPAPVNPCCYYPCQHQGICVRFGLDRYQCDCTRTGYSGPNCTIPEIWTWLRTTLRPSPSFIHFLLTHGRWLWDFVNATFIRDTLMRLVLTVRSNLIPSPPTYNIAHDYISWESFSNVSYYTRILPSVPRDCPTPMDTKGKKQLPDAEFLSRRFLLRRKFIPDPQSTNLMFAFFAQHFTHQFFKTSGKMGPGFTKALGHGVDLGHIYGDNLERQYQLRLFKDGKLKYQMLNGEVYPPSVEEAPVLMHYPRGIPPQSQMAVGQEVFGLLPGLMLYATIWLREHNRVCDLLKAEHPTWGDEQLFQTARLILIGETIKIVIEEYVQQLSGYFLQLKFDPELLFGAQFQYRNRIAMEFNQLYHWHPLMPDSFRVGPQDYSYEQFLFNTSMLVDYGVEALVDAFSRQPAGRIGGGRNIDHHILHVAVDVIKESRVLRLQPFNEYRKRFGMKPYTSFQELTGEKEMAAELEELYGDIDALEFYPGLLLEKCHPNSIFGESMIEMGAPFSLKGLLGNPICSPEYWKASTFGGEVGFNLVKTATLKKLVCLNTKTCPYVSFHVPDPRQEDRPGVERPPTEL

VEGFR-2 [8] = molecular target: T1, VEGFR-2; assay: cell-based; format: cell-based; conditions: for inhibition at 10 µM: HCT-116, HCT116; for VEGFR-2 pg/mL ± SEM HCT116: at 10 μM, control 317.80 ± 3.5
[9] = system: HCT116 (colon) cancer cell line; assay: 2D-monolayer antiproliferation (MTT) against HCT116; format: cell-based, human; conditions: for IC50: Homo sapiens, HCT-116; for SI (selectivity index) HCT116: IC50 of RPE1 normal cell/IC50 of HCT116
[10] = system: RPE1 (normal human immortalized retinal pigment epithelial cell line); assay: cells; format: cell-based; conditions: Homo sapiens, RPE-1; MTT, normal RPE1 cell; read-out: IC50, μM ± SEM RPE1
VEGFR-2 [11] = molecular target: T1, VEGFR-2; assay: cell-based; format: cell-based; conditions: for inhibition at 10 µM: PaCa-2, PaCa2; for VEGFR-2 pg/mL ± SEM PaCa2: at 10 μM, control 326.80 ± 1.9
COX-2 = molecular target: T3, COX-2 (Homo sapiens, UniProt P35354); assay: biochemical; conditions: for inhibition at 10 µM: 3 replicates, read-out: % Inhibition of COX-2 ± SEM; for SI (selectivity index, COX-2/COX-1): at 10 μM
T3 construct: purchased BioVision incorporated USA K548–100
T3 sequence (P35354 18-604): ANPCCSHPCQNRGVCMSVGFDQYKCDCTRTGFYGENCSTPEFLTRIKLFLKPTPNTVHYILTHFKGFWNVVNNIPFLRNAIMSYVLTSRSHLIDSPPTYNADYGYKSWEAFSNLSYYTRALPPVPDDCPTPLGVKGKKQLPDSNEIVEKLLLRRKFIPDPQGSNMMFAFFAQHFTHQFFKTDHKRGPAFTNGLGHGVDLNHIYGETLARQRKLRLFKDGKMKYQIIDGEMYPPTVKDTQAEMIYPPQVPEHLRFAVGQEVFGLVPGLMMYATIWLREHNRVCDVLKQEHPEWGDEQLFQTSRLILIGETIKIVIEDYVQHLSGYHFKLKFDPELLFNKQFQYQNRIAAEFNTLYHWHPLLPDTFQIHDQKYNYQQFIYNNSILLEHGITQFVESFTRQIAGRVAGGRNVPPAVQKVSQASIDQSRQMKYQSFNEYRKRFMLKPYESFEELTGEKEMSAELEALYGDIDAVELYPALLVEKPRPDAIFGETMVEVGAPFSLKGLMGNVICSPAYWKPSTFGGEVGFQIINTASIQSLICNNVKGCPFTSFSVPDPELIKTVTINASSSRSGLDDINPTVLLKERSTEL

[12] = MTT, 72 h incubation, HCT116 colon, read-out: IC50, μM ± SEM HCT116
[13] = log of observed IC50 (μM), HCT116, read-out: Log(observed property) (converted)

| Compound | TNF-α % inhibition PaCa2 (TNF-α [1]) [%] | TNF-α pg/mL (± SEM) PaCa2 (TNF-α [1]) [pg/mL] | inhibition at 10 µM (VEGFR-2 [2]) [%] | VEGFR-2 pg/mL ± SEM MCF7 (VEGFR-2 [2]) [pg/mL] | TNF-α pg/mL (± SEM) HCT116 (TNF-α [3]) [pg/mL] | IC50 [4] [µM] | SI (selectivity index) MCF7 [4] | 1/(observed property) [5] | IC50 [5] [µM] | SI (selectivity index) PaCa2 [5] | TNF-α % inhibition MCF7 (TNF-α [6]) [%] | TNF-α pg/mL (± SEM) MCF7 (TNF-α [6]) [pg/mL] | IC50 [7] [µM] | SI (selectivity index) A549 [7] | inhibition at 10 µM (COX-1) [%] | inhibition at 10 µM (VEGFR-2 [8]) [%] | VEGFR-2 pg/mL ± SEM HCT116 (VEGFR-2 [8]) [pg/mL] | IC50 [9, 12] [µM] | SI (selectivity index) HCT116 [9] | IC50 [10] [µM] | further results |
| --- | --- | --- | --- | --- | --- | --- | --- | --- | --- | --- | --- | --- | --- | --- | --- | --- | --- | --- | --- | --- | --- |
| CCOP(=O)(OCC)N1C/C(=C\c2ccc(Br)cc2)C(=O)C2(C1)C(c1ccc(Br)cc1)CN(C)C21C(=O)Nc2ccccc21 (stereo not shown) [Compound 17l, Diethyl (E)-[5′′-(4-bromobenzylidene)-4′-(4-bromophenyl)-1′-methyl-2,4′′-dioxodispiro[indoline-3,2′-pyrrolidine-3′,3′′-piperidin]-1′′-yl]phosphonate] | 66.3 | 37.63 ± 0.8 | 71.6 | 73.50 ± 0.8 | 27.34 ± 1.1 | 4.85 ± 0.082 | 1.6 | 0.1626 | 6.15 ± 0.413 | 1.3 | 59.6 | 33.67 ± 1.7 | 7.28 ± 0.316 | 1.1 | 61.6 ± 1.2 | 73.5 | 84.20 ± 1.5 | 4.16 ± 0.129 | 1.9 | 7.85 ± 0.284 | IC50 [9, 13]: 4.16 µM; inhibition at 10 µM (VEGFR-2 [11]): 73.5%; VEGFR-2 pg/mL ± SEM PaCa2 (VEGFR-2 [11]): 86.45 ± 1.2 pg/mL; inhibition at 10 µM (COX-2): 50.3 ± 2.3%; SI (selectivity index, COX-2/COX-1) (COX-2): 0.92 |
| CCOP(=O)(OCC)N1C/C(=C\c2ccc(F)cc2)C(=O)C2(C1)C(c1ccc(F)cc1)CN(C)C21C(=O)Nc2ccc(C)cc21 (stereo not shown) [Compound 17g, Diethyl (E)-(5′′-(4-fluorobenzylidene)-4′-(4-fluorophenyl)-1′,5-dimethyl-2,4′′-dioxodispiro[indoline-3,2′-pyrrolidine-3′,3′′-piperidin]-1′′-yl)phosphonate] | 12.9 | 97.4 ± 3.6 | 75 | 64.80 ± 0.5 | 81.75 ± 2.1 | 5.43 ± 0.152 | 3.5 | 0.1641 | 6.09 ± 0.132 | 3.1 | 0.3 | 83.0 ± 3.2 | 8.15 ± 0.277 | 2.3 | 62.1 ± 3.1 | 69 | 98.40 ± 1.2 | 5.01 ± 0.364 | 3.8 | 19 ± 0.647 | TNF-α % inhibition HCT116 (TNF-α [3]): 14.6%; IC50 [9, 13]: 5.01 µM; inhibition at 10 µM (VEGFR-2 [11]): 77.7%; VEGFR-2 pg/mL ± SEM PaCa2 (VEGFR-2 [11]): 72.80 ± 0.9 pg/mL; inhibition at 10 µM (COX-2): 51.8 ± 2.8% |
| CCOP(=O)(OCC)N1C/C(=C\c2cccs2)C(=O)C2(C1)C(c1cccs1)CN(C)C21C(=O)Nc2ccccc21 (stereo not shown) [Compound 17q, Diethyl (E)-[1′-methyl-2,4′′-dioxo-4′-(thiophen-2-yl)-5′′-(thiophen-2-ylmethylene)dispiro[indoline-3,2′-pyrrolidine-3′,3′′-piperidin]-1′′-yl]phosphonate] | 17.9 | 91.8 ± 2.7 | 43.7 | 145.70 ± 1.9 | 84.26 ± 0.8 | 9.13 ± 0.314 | 3.0 | 0.07485 | 13.4 ± 0.325 | 2.0 | 3.1 | 80.67 ± 2.8 | 24.51 ± 0.204 | 1.1 | 61.3 ± 1.5 | 58.4 | 132.30 ± 0.9 | 11.8 ± 0.4 | 2.3 | 27.2 ± 0.813 | TNF-α % inhibition HCT116 (TNF-α [3]): 12.0%; IC50 [9, 13]: 11.8 µM; inhibition at 10 µM (VEGFR-2 [11]): 58.5%; VEGFR-2 pg/mL ± SEM PaCa2 (VEGFR-2 [11]): 135.70 ± 1.7 pg/mL; inhibition at 10 µM (COX-2): 62.1 ± 3.1%; SI (selectivity index, COX-2/COX-1) (COX-2): 0.93 |
| CCOP(=O)(OCC)N1C/C(=C\c2cccs2)C(=O)C2(C1)C(c1cccs1)CN(C)C21C(=O)Nc2ccc(C)cc21 (stereo not shown) [Compound 17t, Diethyl (E)-(1′,5-dimethyl-2,4′′-dioxo-4′-(thiophen-2-yl)-5′′-(thiophen-2-ylmethylene)dispiro[indoline-3,2′-pyrrolidine-3′,3′′-piperidin]-1′′-yl)phosphonate] | 14.3 | 95.8 ± 2.5 | 62.6 | 96.70 ± 1.2 | 81.64 ± 2.1 | 6.45 ± 0.111 | 3.9 | 0.1056 | 9.47 ± 0.097 | 2.7 | 0.4 | 82.91 ± 3.8 | 14.1 ± 0.201 | 1.8 | 49.2 ± 1.9 | 60.8 | 124.70 ± 1.3 | 7.34 ± 0.161 | 3.5 | 25.4 ± 0.951 | TNF-α % inhibition HCT116 (TNF-α [3]): 14.7%; inhibition at 10 µM (VEGFR-2 [11]): 64.8%; VEGFR-2 pg/mL ± SEM PaCa2 (VEGFR-2 [11]): 115.00 ± 0.9 pg/mL; inhibition at 10 µM (COX-2): 63.7 ± 1.7%; SI (selectivity index, COX-2/COX-1) (COX-2): 1.29 |
| CCOP(=O)(OCC)N1C/C(=C\c2ccc(F)cc2)C(=O)C2(C1)C(c1ccc(F)cc1)CN(C)C21C(=O)Nc2ccccc21 (stereo not shown) [Compound 17e, Diethyl (E)-[5′′-(4-fluorobenzylidene)-4′-(4-fluorophenyl)-1′-methyl-2,4′′-dioxodispiro[indoline-3,2′-pyrrolidine-3′,3′′-piperidin]-1′′-yl]phosphonate] | 12.7 | 97.6 ± 1.6 | 55 | 116.50 ± 1.0 | 94.27 ± 0.7 | 5.64 ± 0.273 | 2.9 | 0.1055 | 9.48 ± 0.278 | 1.8 | 1.7 | 81.87 ± 3.0 | 7.73 ± 0.155 | 2.1 | 55 ± 3.6 | 66.2 | 107.50 ± 2.0 | 6.99 ± 0.101 | 2.4 | 16.6 ± 0.907 | TNF-α % inhibition HCT116 (TNF-α [3]): 1.5%; IC50 [9, 13]: 6.99 µM; inhibition at 10 µM (VEGFR-2 [11]): 61%; VEGFR-2 pg/mL ± SEM PaCa2 (VEGFR-2 [11]): 127.43 ± 1.3 pg/mL; inhibition at 10 µM (COX-2): 59.6 ± 1.3%; SI (selectivity index, COX-2/COX-1) (COX-2): 1.08 |
